According to PMC12027554, “Inhibition of ABCG2 by SCO-101 Enhances Chemotherapy Efficacy in Cancer” (International Journal of Molecular Sciences, 2025):
Blank lines part the entries; values can stand above or below the compound they belong to.

Tests used:
[1] = test system: HT29SN-38 cells; assay: Cellular dye efflux assay (Hoechst 33342), resistant cells; assay type: cell-based, human; conditions: SCO-101 20 µM, Ko-143 1 µM, PSC833 1 µM
Procedure: (§1) Twenty-four hours before the experiments, cells were seeded into 96-well Nunclon^TM plates at a density of 6000 (HT29), 7000 (PANC-1) or 8000 (LoVo) cells/well. The following day, cells were treated in triplicate with the relevant drugs at the indicated concentrations for 1 h. Next, 5 μg/mL Hoechst 33342 was added to the wells, and plates incubated at 37 °C for 30 min^−1 h. Cells were washed with cold PBS, treatments re-added and plates re-incubated at 37 °C for 30 min to 1 h. Plates were analyzed using a Celigo® (Nexcelom Bioscience, Lawrence, MA, USA) imaging cytometer. Data are expressed as percentages of fluorescence intensity, calculated through the following formula: % fluorescence intensity=Mean fluorescence intensity of sample/Mean fluorescence intensity of parental control×100
(§2) Fluorescent images were captured with an Olympus® IX71/TH4-200 microscope equipped with an Olympus® DP72 camera (Shinjuku, Tokyo, Japan), and cells were seeded at a 1.5 × 10^5 cells/well density and treated as described above.

[2] = test system: HT29PAR cells; assay: Cellular dye efflux assay (Hoechst 33342), parental cells; assay type: cell-based, human; conditions: SCO-101 20 µM, Ko-143 1 µM
Procedure: as §1, §2

[3] = test system: HT29SN-38 cells; assay: 3H-SN-38 uptake in cell monolayers; assay type: cell-based, human; conditions: HT29SN-38 monolayers; for cellular accumulation of 3H-SN-38: SCO-101 25 µM, Ko-143 0.5 µM, ZSQ 0.5 µM, vs control (HBSS)
Procedure: Cells were seeded at a density of 1.8 × 10^4 cells/well in 96-well plates and sub-cultured for 48 h. Drugs were dissolved in HBSS transport buffer (HBSS, 0.05% BSA, 10 mM HEPES, pH 7.4) at different concentrations. All treatments were investigated in technical triplicates. On the day of the experiments, the culture medium was exchanged with 100 μL transport buffer and cells incubated for 15 min at 37 °C. Next, the blank transport buffer was exchanged with 50 μL transport buffer containing the different compounds (2X of final concentrations) and incubated for an additional 15 min at 37 °C. The uptake experiment was started by adding 50 μL of 2 μCi/mL ^3H-SN38 and stopped after 15 min of incubation at 37 °C by removing the transport buffer from all wells. Cell monolayers were washed twice by adding/removing ice-cold transport buffer and lysed for 15 min at RT in 100 μL 0.1% TritonX-100. Cell lysates were transferred to scintillation vials containing 2 mL of scintillation fluid (Ultima Gold, PerkinElmer). Each well was washed with 100 μL purified water (milliQ), which was also transferred to respective scintillation vials. The radioactivity in each scintillation vial was measured by means of scintillation counting (Tri-Carb 2910 TR, PerkinElmer, Waltham, MA, USA).

[4] = test system: HT29PAR cells; assay: Cell viability assay (MTT / CCK-8), drug-sensitive HT29; assay type: cell-based, human
Procedure: (§3) Cells were seeded at a density of 0.2–1 × 10^4 cells/well into 96-well plates. One day after seeding, treatments were performed in triplicate for 72 h, or as otherwise indicated in the relevant panel/figure legend and kept at 37 °C/5% CO2. Growth medium alone (“untreated” cells) or DMSO was used as a control.
(§4) For MTT assays, media were replaced at the final timepoint with 100 μL of 1:10 MTT reagent (0.5 mg/mL in PBS) diluted in growth medium, and plates were incubated for 3 h. A total of 100 μL/well of stop buffer (50 g Sodium Dodecyl Sulfate, 245 mL ddH2O, 5 mL 1N HCl) was added and plates incubated for 24 h to let colored formazan crystals develop. Optical densities (ODs) were measured with a PowerWave^TM Microplate spectrophotometer (BioTek, Winooski, VT, USA) at 570 nm and 670 nm (background).
(§5) For CCK-8 assays, 100 μL of 1:10 CCK-8 reagent (pevonedistat-treated HT29 cells) diluted in medium was added to each well and cells incubated for 1–2 h at 37 °C. OD values were measured at 450 nm with a VersaMax microplate spectrophotometer (Molecular Devices, San Jose, CA, USA).
(§6) Background values were subtracted prior to further analysis. The percentage of cell viability was expressed as relative values versus untreated cells as determined by the various assays. EC50/IC50 values were calculated using GraphPad Prism (v10.4.1) and the in-built non-linear regression [log (inhibitor) vs. response—variable slope (four parameters)] calculation. For determination of synergy scores, the online tool SynergyFinder+ (https://synergyfinder.org access date 15 February 2025) was employed following 4 × 4- or 6 × 6-matrix dose-escalation cell viability experiments. Doses of drugs are indicated in the relevant figure legends and ranges have been chosen based on the response of cells to single-drug dose-dependent experiments. Synergy scores were calculated using the ZIP model, which takes the advantages of both the Loewe additivity and the Bliss independence models, aiming at a systematic assessment of various types of drug interaction patterns that may arise in a high-throughput drug combination screening.

[5] = test system: HT29SN-38 cells; assay: Cell viability assay (MTT / CCK-8), SN-38-resistant HT29; assay type: cell-based, human
Procedure: as §3, §4, §5, §6

[6] = test system: HL-60PAR cells; assay: Cell viability assay, HL-60 parental; assay type: cell-based; conditions: Homo sapiens, 96 h
Procedure: as §3, §6

[7] = test system: HL-60ABCG2 cells; assay: Cell viability assay, ABCG2-expressing HL-60; assay type: cell-based; conditions: Homo sapiens, 96 h
Procedure: as §3, §6

SMILES: COc1ccc2c3c([nH]c2c1)[C@H](CC(C)C)N1C(=O)[C@H](CCC(=O)OC(C)(C)C)NC(=O)[C@@H]1C3 [Ko-143]
H33342 dye accumulation [1]: restored | H33342 dye accumulation [2]: No change | cellular accumulation of 3H-SN-38 [3]: increased | EC50 ([3]; read-out: EC50, 3H-SN-38 uptake (regarded as IC50 of ABCG2 inhibition)): 70 nM

SMILES: C/C=C/C[C@@H](C)C(=O)[C@H]1C(=O)N[C@@H](C(C)C)C(=O)N(C)CC(=O)N(C)[C@@H](CC(C)C)C(=O)N[C@@H](C(C)C)C(=O)N(C)[C@@H](CC(C)C)C(=O)N[C@@H](C)C(=O)N[C@H](C)C(=O)N(C)[C@@H](CC(C)C)C(=O)N(C)[C@@H](CC(C)C)C(=O)N(C)[C@@H](C(C)C)C(=O)N1C [PSC833]
H33342 dye accumulation [1]: No change

IC50 ([4]; 72 h): 160 nM | IC50 ([5]; 72 h): 7290 nM
SMILES: CCc1c2c(nc3ccc(O)cc13)-c1cc3c(c(=O)n1C2)COC(=O)[C@]3(O)CC [SN-38, reference compound]
cell viability after 24 h single treatment and drug washout ([5]; SCO-101 15 μM or SN-38 0.5 μM alone, washout 48 h or 120 h): did not affect cell viability

SMILES: O[C@@H](COc1cccc2ncccc12)CN1CCN([C@@H]2c3ccccc3[C@@H]3[C@H](c4ccccc42)C3(F)F)CC1 [ZSQ]
cellular accumulation of 3H-SN-38 [3]: did not alter

SMILES: O=C1c2c(O)ccc(O)c2C(=O)c2c(NCCNCCO)ccc(NCCNCCO)c21 [mitoxantrone]
IC50 [6]: 40 nM | IC50 [7]: 580 nM

IC50 ([4]; Homo sapiens, HT-29, 72 h): 130 nM | IC50 ([5]; Homo sapiens, HT-29, 72 h): 3230 nM | IC50 [7]: > 1000 nM
SMILES: NS(=O)(=O)OC[C@@H]1C[C@@H](n2ccc3c(N[C@H]4CCc5ccccc54)ncnc32)C[C@@H]1O [pevonedistat]
IC50 [6]: 5.4 nM

IC50 ([4]; Homo sapiens, HT-29, 72 h): 60 nM | IC50 ([5]; Homo sapiens, HT-29, 72 h): 1360 nM | IC50 [7]: > 1000 nM
SMILES: CC[C@@]1(O)C(=O)OCc2c1cc1n(c2=O)Cc2cc3c(CN(C)C)c(O)ccc3nc2-1 [topotecan]
